What was measured:
Type in all cases: cell-based, human
[1] = test system: c-met cardiac organoids; test: OCR/ECAR and energy phenotype (Seahorse XFp) under cobalt chloride-mimicked hypoxia
Description: Cardiac organoids cultured for 3-4 months in 96 wells were transferred randomly to XFp mini plates (1-6 organoids/well, 300 to 1100 μm in diameter) (Seahorse, Agilent). The cardiac culture medium was treated with 200 μM CoCl2 (sigma) concentration for 24 hours. To evaluate the effects of HGF stimulation and c-met inhibition we have used respectively HGF at 50 ng/ml (R&D Systems) and SU11274 at […] (Sigma) under hypoxia. OCR, ECAR and energy phenotype test were all measured using a Seahorse XFp analyzer (Seahorse, Agilent). On the day of testing, cells were incubated in XF assay medium for 1 hr at 37° C. in non-CO2 incubator before measurement. Cell energy phenotype kit was used with port A containing the FCCP/oligomycin stressor mix at 2.0/1.0 μM (final well concentration). OCR and ECAR were normalized to the cell numbers of each wells. Cells were stained with DAPI and calculated from Leica confocal microscope images.

[2] = test system: c-met cardiac organoids; test: Cobalt chloride-mimicked hypoxia, proBNP and caspase-3 immunostaining; conditions: 200 μM CoCl2 hypoxia 24 h, n=8, normalized by DAPI fluorescence intensity
Description: (§1) Cardiac organoids cultured on 24 or 96-well culture plates were washed with phosphate-buffered saline (PBS), fixed with 4% paraformaldehyde in PBS for 60 min, permeabilized with 0.2% Triton X-100 (Sigma) in PBS and blocked 10% serum. Primary antibodies were diluted in PBS 10% serum at the following concentrations: phospho-Met; 1:100 (Cell Signaling Technologies), phospho-STAT3; 1:200 (Cell Signaling Technologies), Sarcomeric Alpha Actinin; 1:200 (Abcam), MLC-2A; 1:100 (Synaptic Systems), MLC-2V; 1:100 (Synaptic Systems), Cardiac troponin T; 1:100 (Abcam), CD31; 1:100 (Abcam), Caspase-3; 1:100 (Cell Signaling Technologies), ProBNP; 1:100 (Abcam), and then washed three times in PBS. The samples were incubated with secondary antibodies in antibody dilution buffer, then washed in PBS. Nuclei were labeled with DAPI mounting medium. The negative control performed a secondary antibody only (data not shown). Visualization and capture were realized with a Leica confocal microscope and LAS AF software.
(§2) Cardiac organoids cultured for 3-4 months in 96 wells were transferred randomly to XFp mini plates (1-6 organoids/well, 300 to 1100 μm in diameter) (Seahorse, Agilent). The cardiac culture medium was treated with 200 μM CoCl2 (sigma) concentration for 24 hours. To evaluate the effects of HGF stimulation and c-met inhibition we have used respectively HGF at 50 ng/ml (R&D Systems) and SU11274 at 5 M (Sigma) under hypoxia.

[3] = test system: control cardiac organoids; test: as above; conditions: 200 μM CoCl2 hypoxia 24 h, n=5, normalized by DAPI fluorescence intensity
Description: as §1, §2

[4] = test system: control cardiac organoids; test: OCR/ECAR and energy phenotype (Seahorse XFp) under cobalt chloride-mimicked hypoxia; conditions: after CoCl2 hypoxia 24 h; control group as compared to c-met group
Description: as §2
OCR, ECAR and energy phenotype test were all measured using a Seahorse XFp analyzer (Seahorse, Agilent). On the day of testing, cells were incubated in XF assay medium for 1 hr at 37° C. in non-CO2 incubator before measurement. Cell energy phenotype kit was used with port A containing the FCCP/oligomycin stressor mix at 2.0/1.0 μM (final well concentration). OCR and ECAR were normalized to the cell numbers of each wells. Cells were stained with DAPI and calculated from Leica confocal microscope images.

Row | SMILES | glycolysis activity at the baseline (ECAR) ([1]; c-met organoids, CoCl2 + SU11274 24 h, compared with HGF-treated (50 ng/ml) control organoids) | caspase-3+ cells intensity [2] | proBNP+ cells intensity [2] | caspase-3+ cells intensity [3] | proBNP+ cells intensity [3] | glycolysis activity (ECAR) [4] | energy phenotype (OCR versus ECAR) ([1]; after CoCl2 hypoxia 24 h, c-met organoids versus control)
1 | Cc1[nH]c(/C=C2\C(=O)Nc3ccc(S(=O)(=O)N(C)c4cccc(Cl)c4)cc32)c(C)c1C(=O)N1CCN(C)CC1 [SU11274] | significantly decreased |  |  |  |  |  | 
2 | [Cl][Co][Cl] [cobalt, cobalt chloride] |  | 0.34±0.16 | 0.73±1.4 | 0.61±0.11 | 0.78±0.16 | decreased | more energetic than control
